# Measurements from patent publication US11167039B2, “MET antibody drug conjugates” (priority 2016, dated 2021).
# Tests used:
# [1] = tested on: pan-AKT phosphorylation (pAKT) in Caki-1 cells; assay: Phosphor-AKT bioassay for MET agonist activity in Caki-1 cells; type: cell-based; details: 5 μg/mL
# Protocol: Because it has been reported that MET agonistic antibodies increased hepatocyte proliferation and toxicity, a phosphor-AKT assay may be used to test MET-ADCs for MET agonist activity. Briefly stated, Caki-1 cells may be starved overnight in serum-free medium with 0.1% BSA and then treated with ADCs or naked MET antibodies at 5 μg/mL for the desired durations. Cell lysates may be analyzed for phosphorylation of pan-AKT by MSD ELISA, for example.
# HT-29 cells [2] = assay: HT-29 cell-killing assay; type: cell-based, human; details: HT-29 cells
# Protocol: Therefore, the HT-29 cell line may be used to determine if test MET-ADCs can kill MET overexpressing tumor cells in vitro.
# Briefly described, 2-3×10^3 cells/well in 100 μL of culture medium may be plated in 96 well plates and incubated overnight at 37° C., 5% CO2. The MET-ADCs, MET antibody(ies), control MMAE or control hIgG4 conjugated to MMAE with cysteine conjugation antibody(ies) may be diluted 1:3 in serum-free culture medium starting from 100 nM (final) in 50 μL as 3× concentrations to the HT-29 cells. At the end of an additional 5-6 days of cell growth at 37° C. in a humidified incubator with 5% CO2, the plates may be equilibrated to room temperature for 30 minutes and 100 μL/well of CellTiter-Glo® reagent (Promega Corp., Fitchburg, Wis.) may then be added to assess cell viability. Cell viability may be determined by measuring luminescence.
# Various tumor cell lines and normal human cells may be tested for MET-ADC induced cell killing activity essentially as described above in Example 10 as assessed for MET receptor density. MET cell surface density was determined by indirect immunofluorescence staining of cell surface antigens on cultured cells using QIFIKIT (Dako). […] Following a forty-five minute incubation, cells may be incubated for 1 hour on ice with FITC conjugated antibody diluted 1:50 in FACS buffer. Then cells may be washed and receptor numbers may be determined by indirect immunofluorescence staining of the QIFIKIT beads using a Becton Dickinson LSRII flow cytometer.
# HT-29 cells [3] = details: Strickler, J. H., et al., read-out: EC50 in a HT-29 killing assay; cited from earlier work
# [4] = tested on: MET expressing tumor cells; details: reported, Strickler et al. 2016; cited from earlier work
# [5] = tested on: HT-29 colon cancer tumor xenografts; assay: HT-29 mouse xenograft model; type: in vivo; details: separate experiment(s), data not shown
# Protocol: Female athymic nude mice age 6- to 7-weeks old are available commercially, including from Harlan Laboratories (Indianapolis, Ind.). The mice are allowed to acclimate for one week and fed ad libitum on a normal low fat (4.5%) diet, which may be continued for the duration of the study. Tumor cells may be purchased from ATCC and may be cultured in cell culture media such as RPMI 1640 (Life Technologies) with L-glutamine, 25 mM HEPES supplemented with 10% FBS and 1 mM Na Pyruvate. Cells may be detached, washed with serum free medium and then resuspended at a final concentration of 50×10^6 cells/mL in serum free RPMI 1640. Tumor cells, approximately 5×10^6, may be injected subcutaneously in the rear flank of subject mice in a 1:1 mixture of serum free growth medium and Matrigel (Becton Dickinson, Bedford, Mass.). Tumor and body weight measurements may be performed twice weekly. Prior to treatment, mice can be randomized based on tumor size using a randomization algorithm. Treatments may be started when the average tumor volume reaches 100 mm^3. […]
# MET-ADCs and control hIgG4-MMAE may be prepared in Phosphate Buffered Saline (PBS) prior to dose. Tumor size may be determined by caliper measurements. […] Tumor volume data can be transformed to a log scale to equalize variance across time and treatment groups. Log volume data can be analyzed with two-way repeated measures ANOVA by time and treatment using SAS PROC MIXED software (SAS Institutes Inc, Cary, N.C.). Treatment groups are compared with the specified control group at each time point.
Substance,MET agonist activity (induction of pan-AKT phosphorylation) [1],cell killing activity in HT-29 cells (HT-29 cells [2]),EC50 (HT-29 cells [3]) [nM],approximate threshold of MET cell surface molecules for sensitivity [4],inhibition of HT-29 tumor growth [5]
MET-ADC #6: emibetuzumab conjugated with maleimidocaproyl-valine-citrulline-p-aminobenzoyloxycarbonyl-monomethyl auristatin E (Mal-C-vc-PABC-MMAE),significant increased agonist activity,less active than MET-ADC #1,,,
ABBV-399,,,9,"> 100,000",
Emibetuzumab,low to no agonist activity,no significant cell killing activity,,,did not inhibit HT-29 tumor growth
